Laboratory results taken from PubChem BioAssay (NCI).
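GI50 is the concentration that inhibits growth by half. TGI marks complete inhibition of growth.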

What was measured:
Test in all cases: NCI anticancer screen, dose series, 384-well format
TK-10 renal = test system: TK-10 renal
HCT-15 colon = test system: HCT-15 colon
PC-3 prostate = test system: PC-3 prostate
DU-145 prostate = test system: DU-145 prostate
SK-MEL-5 melanoma = test system: SK-MEL-5 melanoma
SN12C renal = test system: SN12C renal
HT29 colon = test system: HT29 colon
SK-OV-3 ovarian = test system: SK-OV-3 ovarian
RXF 393 renal = test system: RXF 393 renal
SF-268 CNS = test system: SF-268 CNS
SNB-75 CNS = test system: SNB-75 CNS
KM12 colon = test system: KM12 colon
OVCAR-5 ovarian = test system: OVCAR-5 ovarian
SK-MEL-28 melanoma = test system: SK-MEL-28 melanoma
LOX IMVI melanoma = test system: LOX IMVI melanoma
BT-549 breast = test system: BT-549 breast
EKVX NSCLC = test system: EKVX NSCLC
MCF7 breast = test system: MCF7 breast
CAKI-1 renal = test system: CAKI-1 renal
MOLT-4 leukemia = test system: MOLT-4 leukemia
SW-620 colon = test system: SW-620 colon
SF-295 CNS = test system: SF-295 CNS
K-562 leukemia = test system: K-562 leukemia
HS 578T breast = test system: HS 578T breast
M14 melanoma = test system: M14 melanoma
A498 renal = test system: A498 renal
OVCAR-8 ovarian = test system: OVCAR-8 ovarian
T-47D breast = test system: T-47D breast
SF-539 CNS = test system: SF-539 CNS
CCRF-CEM leukemia = test system: CCRF-CEM leukemia
HOP-62 NSCLC = test system: HOP-62 NSCLC
HOP-92 NSCLC = test system: HOP-92 NSCLC
SR leukemia = test system: SR leukemia
IGROV1 ovarian = test system: IGROV1 ovarian
UACC-257 melanoma = test system: UACC-257 melanoma
NCI-H522 lung = test system: NCI-H522 lung
SNB-19 CNS = test system: SNB-19 CNS
COLO 205 colon = test system: COLO 205 colon
MALME-3M melanoma = test system: MALME-3M melanoma
NCI-H322M lung = test system: NCI-H322M lung
UO-31 renal = test system: UO-31 renal
OVCAR-4 ovarian = test system: OVCAR-4 ovarian
NCI/ADR-RES ovarian = test system: NCI/ADR-RES ovarian
UACC-62 melanoma = test system: UACC-62 melanoma
U251 glioblastoma = test system: U251 glioblastoma
HCT-116 colon = test system: HCT-116 colon
HCC-2998 colon = test system: HCC-2998 colon
MDA-MB-468 breast = test system: MDA-MB-468 breast
ACHN renal = test system: ACHN renal
HL-60(TB) leukemia = test system: HL-60(TB) leukemia
MDA-MB-435 melanoma = test system: MDA-MB-435 melanoma
OVCAR-3 ovarian = test system: OVCAR-3 ovarian
NCI-H460 NSCLC = test system: NCI-H460 NSCLC
NCI-H23 lung = test system: NCI-H23 lung
A549 NSCLC = test system: A549 NSCLC
RPMI-8226 leukemia = test system: RPMI-8226 leukemia
786-0 renal = test system: 786-0 renal
MDA-MB-231 breast = test system: MDA-MB-231 breast
NCI-H226 lung = test system: NCI-H226 lung

Compound: Cc1c(C(=O)Nc2ccc(Oc3ccnc4cc(OCC(C)(C)O)ccc34)c(F)c2)c(=O)n(-c2ccccc2)n1C
- GI50 (TK-10 renal): 5.2 µM
- TGI (TK-10 renal): > 100 µM
- GI50 (HCT-15 colon): 4.13 µM
- TGI (HCT-15 colon): > 69.6 µM
- GI50 (PC-3 prostate): 3.76 µM
- TGI (PC-3 prostate): > 100 µM
- GI50 (DU-145 prostate): 6.27 µM
- TGI (DU-145 prostate): > 100 µM
- GI50 (SK-MEL-5 melanoma): 1.89 µM
- TGI (SK-MEL-5 melanoma): 4.77 µM
- GI50 (SN12C renal): 0.484 µM
- TGI (SN12C renal): 4.82 µM
- GI50 (HT29 colon): 2.55 µM
- TGI (HT29 colon): > 100 µM
- GI50 (SK-OV-3 ovarian): 3.51 µM
- TGI (SK-OV-3 ovarian): > 50.8 µM
- GI50 (RXF 393 renal): 1.66 µM
- TGI (RXF 393 renal): 4.11 µM
- GI50 (SF-268 CNS): 3.23 µM
- TGI (SF-268 CNS): > 19.7 µM
- GI50 (SNB-75 CNS): 2.68 µM
- TGI (SNB-75 CNS): > 28.1 µM
- GI50 (KM12 colon): 0.258 µM
- TGI (KM12 colon): > 100 µM
- GI50 (OVCAR-5 ovarian): 3.04 µM
- TGI (OVCAR-5 ovarian): > 100 µM
- GI50 (SK-MEL-28 melanoma): 3.58 µM
- TGI (SK-MEL-28 melanoma): > 30.3 µM
- GI50 (LOX IMVI melanoma): 2.65 µM
- TGI (LOX IMVI melanoma): > 44 µM
- GI50 (BT-549 breast): > 23.7 µM
- TGI (BT-549 breast): > 65.3 µM
- GI50 (EKVX NSCLC): 2.61 µM
- TGI (EKVX NSCLC): 8.53 µM
- GI50 (MCF7 breast): 3.5 µM
- TGI (MCF7 breast): > 38.9 µM
- GI50 (CAKI-1 renal): 0.963 µM
- TGI (CAKI-1 renal): > 39 µM
- GI50 (MOLT-4 leukemia): 1.46 µM
- TGI (MOLT-4 leukemia): 3.66 µM
- GI50 (SW-620 colon): 4.53 µM
- TGI (SW-620 colon): > 100 µM
- GI50 (SF-295 CNS): 1.37 µM
- TGI (SF-295 CNS): > 23.6 µM
- GI50 (K-562 leukemia): 0.152 µM
- TGI (K-562 leukemia): 0.391 µM
- GI50 (HS 578T breast): 1.86 µM
- TGI (HS 578T breast): 4.85 µM
- GI50 (M14 melanoma): 2.68 µM
- TGI (M14 melanoma): > 22.7 µM
- GI50 (A498 renal): 3.58 µM
- TGI (A498 renal): > 37.7 µM
- GI50 (OVCAR-8 ovarian): 3.69 µM
- TGI (OVCAR-8 ovarian): > 88.7 µM
- GI50 (T-47D breast): 1.57 µM
- TGI (T-47D breast): 4.72 µM
- GI50 (SF-539 CNS): 3.68 µM
- TGI (SF-539 CNS): > 100 µM
- GI50 (CCRF-CEM leukemia): 2.61 µM
- TGI (CCRF-CEM leukemia): 7.97 µM
- GI50 (HOP-62 NSCLC): 2.34 µM
- TGI (HOP-62 NSCLC): > 22.5 µM
- GI50 (HOP-92 NSCLC): 2.36 µM
- TGI (HOP-92 NSCLC): > 25.8 µM
- GI50 (SR leukemia): 2 µM
- TGI (SR leukemia): 3.82 µM
- GI50 (IGROV1 ovarian): 4.3 µM
- TGI (IGROV1 ovarian): > 100 µM
- GI50 (UACC-257 melanoma): 3.24 µM
- TGI (UACC-257 melanoma): 22 µM
- GI50 (NCI-H522 lung): 3.74 µM
- TGI (NCI-H522 lung): > 36.9 µM
- GI50 (SNB-19 CNS): 4.78 µM
- TGI (SNB-19 CNS): > 100 µM
- GI50 (COLO 205 colon): 2.26 µM
- TGI (COLO 205 colon): 6.93 µM
- GI50 (MALME-3M melanoma): 2.11 µM
- TGI (MALME-3M melanoma): 5.14 µM
- GI50 (NCI-H322M lung): 3.34 µM
- TGI (NCI-H322M lung): 21.8 µM
- GI50 (UO-31 renal): 4.31 µM
- TGI (UO-31 renal): > 100 µM
- GI50 (OVCAR-4 ovarian): 4.8 µM
- TGI (OVCAR-4 ovarian): > 100 µM
- GI50 (NCI/ADR-RES ovarian): 4.13 µM
- TGI (NCI/ADR-RES ovarian): > 44.1 µM
- GI50 (UACC-62 melanoma): 1.41 µM
- TGI (UACC-62 melanoma): 4.21 µM
- GI50 (U251 glioblastoma): 4.93 µM
- TGI (U251 glioblastoma): > 100 µM
- GI50 (HCT-116 colon): 3.97 µM
- TGI (HCT-116 colon): > 100 µM
- GI50 (HCC-2998 colon): > 31.1 µM
- TGI (HCC-2998 colon): > 100 µM
- GI50 (MDA-MB-468 breast): 1.62 µM
- TGI (MDA-MB-468 breast): 4.86 µM
- GI50 (ACHN renal): 3.39 µM
- TGI (ACHN renal): > 100 µM
- GI50 (HL-60(TB) leukemia): 3.5 µM
- TGI (HL-60(TB) leukemia): 6.78 µM
- GI50 (MDA-MB-435 melanoma): 3.31 µM
- TGI (MDA-MB-435 melanoma): > 31.4 µM
- GI50 (OVCAR-3 ovarian): 4.83 µM
- TGI (OVCAR-3 ovarian): > 100 µM
- GI50 (NCI-H460 NSCLC): 2.62 µM
- TGI (NCI-H460 NSCLC): 6.33 µM
- GI50 (NCI-H23 lung): 1.52 µM
- TGI (NCI-H23 lung): 7.35 µM
- GI50 (A549 NSCLC): 4.26 µM
- TGI (A549 NSCLC): > 100 µM
- GI50 (RPMI-8226 leukemia): 3.03 µM
- TGI (RPMI-8226 leukemia): 7.45 µM
- GI50 ([…]-0 renal): 5.8 µM
- TGI (786-0 renal): 96.9 µM
- GI50 (MDA-MB-231 breast): 3.26 µM
- TGI (MDA-MB-231 breast): > 30.4 µM
- GI50 (NCI-H226 lung): 1.93 µM
- TGI (NCI-H226 lung): 7.08 µM
